One test has as its system HIV-1 RT mutant V111A. As to the kind of experiment: single round infection assay, V111A. In kind it is cell-based. Conditions: for fold-change of IC50 of the mutant relative to WT: V111A vs WT. As to the method: (§1) The human osteosarcoma cell line, HOS, was obtained from Dr. Richard Schwartz (Michigan State University, East Lansing, MI) and grown in Dulbecco’s modified Eagle’s medium (Invitrogen, Carlsbad, CA) supplemented with 5 % (v/v) fetal bovine serum, 5 % newborn calf serum, and penicillin (50 units/ml) plus streptomycin (50 µg/ml; Quality Biological, Gaithersburg, MD). Virion production and single-round infectivity assays were used to determine antiviral activity (IC50 values) of the compounds as previously described.
(§2) pNLNgoMIVR-ΔEnv.LUC has been described previously. The RT open reading frame was removed from pNLNgoMIVR-ΔEnv.LUC (digestion with SpeI and SalI) and inserted between the SpeI and SalI sites of pBluescript II KS+. Using that construct as the wild-type template, we prepared the following HIV-1 RT mutants using the QuikChange II XL (Stratagene, La Jolla, CA) site-directed mutagenesis protocol kit: L100I, K103N, Y181C, Y188L, H221Y, K103N/Y181C, G190A, G190S, M230L, P236L, L100I/K103N, K103N/P225H, V106A/G190A/F227L, V106A, L234I, V106A/F227L, V106A/L234I, V106A/F227L/L234I, E40K, D67E, K101E, V111A, E138K, M184I, M184V, K101E/M184I, K101E/M184V, E138K/M184I, E138K/M184V, K101P, Y181I, and K101P/V179I. The following sense oligonucleotides were used with matching cognate antisense oligonucleotides (not shown) (Integrated DNA Technologies, Coralville, IA) in the mutagenesis: L100I, 5′-[…]-3′; L100I 2-103, 5′-[…]-3′; K103N, 5′-[…]-3′; Y181C, 5′-[…]-3′; Y188L, 5′-[…]-3′; H221Y, 5′-[…]-3′; G190A, 5′-[…]-3′; G190S, 5′-[…]-3′; P225H, 5′-[…]-3′; F227, 5′-[…]-3′; M230L, 5′-[…]-3′; P236L, 5′-[…]-3′; V106A, 5′-[…]-3′; L234I, 5′-[…]-3′; E40K, 5′-[…]-3′; D67E, 5′-[…]-3′; K101E, 5′-[…]-3′; V111A, 5′-[…]-3′; E138K, 5′-[…]-3′; M184I, 5′-[…]-3′; M184V, 5′-[…]-3′; K101P, 5′-[…]-3′; Y181I, 5′-[…]-3′; K101P/V179I, 5′-[…]-3′. The double mutants K103N/Y181C, K103N/P225H, and L100I/K103N were made using the previously generated K103N mutant and the appropriate oligonucleotides to add the second mutation, Y181C, P225, and L100I respectively. The double mutants V106A/F227L and V106A/L234I were prepared using the previously generated V106A mutant and the appropriate oligonucleotides to add the second mutation, F227L and L234I, respectively. The double mutants K101E/M184I and K101E/M184V were constructed using the previously generated K101E mutant and the appropriate oligonucleotides to add the second mutation, M184I and M184V, respectively. The double mutants E138K/M184I and E138K/M184V were constructed using the previously generated E138K mutant and the appropriate oligonucleotides for the second mutation, M184I and M184V, respectively. The triple mutant V106A/F227L/L234I was made using the previously generated V106A/F227L double mutant and the appropriate oligonucleotides for the third mutation, L234I. The triple mutant V106A/G190A/F227L was constructed in a series of steps using the previously generated V106A mutant and the appropriate oligonucleotides for the second mutation, G190A, to generate the double mutant V106A/G190A, and then the triple mutant was made using double mutant V106A/G190A and oligonucleotides for the third mutation, F227L. […]
(§3) 10.1186/s12977-016-0244-2 The IC50 values (nM) of RPV and the RPV analogs were determined against the NNRTI resistant mutants were measured by using a single round infection assay, n = 4. The concentrations (nM) are measured by reductions in luciferase reporter activity followed by the standard deviations. […]

Test [1] deals with HIV-1 RT mutant K103N/Y181C. Set-up: method as in PMID 23217210. Conditions: previous study; cited from earlier work.
Test [2] deals with HIV-1 RT mutant V106A/F227L/L234I. The test can be described thus: single round infection assay, V106A/F227L/L234I. In kind it is cell-based. The following applies: for fold-change of IC50 of the mutant relative to WT: V106A/F227L/L234I vs WT; for IC50: ± SD, n=4. As to the method: as §1
pNLNgoMIVR-ΔEnv.LUC has been described previously. The RT open reading frame was removed from pNLNgoMIVR-ΔEnv.LUC (digestion with SpeI and SalI) and inserted between the SpeI and SalI sites of pBluescript II KS+. Using that construct as the wild-type template, we prepared the following HIV-1 RT mutants using the QuikChange II XL (Stratagene, La Jolla, CA) site-directed mutagenesis protocol kit: L100I, K103N, Y181C, Y188L, H221Y, K103N/Y181C, G190A, G190S, M230L, P236L, L100I/K103N, K103N/P225H, V106A/G190A/F227L, V106A, L234I, V106A/F227L, V106A/L234I, V106A/F227L/L234I, E40K, D67E, K101E, V111A, E138K, M184I, M184V, K101E/M184I, K101E/M184V, E138K/M184I, E138K/M184V, K101P, Y181I, and K101P/V179I. The following sense oligonucleotides were used with matching cognate antisense oligonucleotides (not shown) (Integrated DNA Technologies, Coralville, IA) in the mutagenesis: L100I, 5′-[…]-3′; L100I 2-103, 5′-[…]-3′; K103N, 5′-[…]-3′; Y181C, 5′-[…]-3′; Y188L, 5′-[…]-3′; H221Y, 5′-[…]-3′; G190A, 5′-[…]-3′; G190S, 5′-[…]-3′; P225H, 5′-[…]-3′; F227, 5′-[…]-3′; M230L, 5′-[…]-3′; P236L, 5′-[…]-3′; V106A, 5′-[…]-3′; L234I, 5′-[…]-3′; E40K, 5′-[…]-3′; D67E, 5′-[…]-3′; K101E, 5′-[…]-3′; V111A, 5′-[…]-3′; E138K, 5′-[…]-3′; M184I, 5′-[…]-3′; M184V, 5′-[…]-3′; K101P, 5′-[…]-3′; Y181I, 5′-[…]-3′; K101P/V179I, 5′-[…]-3′. The double mutants K103N/Y181C, K103N/P225H, and L100I/K103N were made using the previously generated K103N mutant and the appropriate oligonucleotides to add the second mutation, Y181C, P225, and L100I respectively. The double mutants V106A/F227L and V106A/L234I were prepared using the previously generated V106A mutant and the appropriate oligonucleotides to add the second mutation, F227L and L234I, respectively. The double mutants K101E/M184I and K101E/M184V were constructed using the previously generated K101E mutant and the appropriate oligonucleotides to add the second mutation, M184I and M184V, respectively. The double mutants E138K/M184I and E138K/M184V were constructed using the previously generated E138K mutant and the appropriate oligonucleotides for the second mutation, M184I and M184V, respectively. The triple mutant V106A/F227L/L234I was made using the previously generated V106A/F227L double mutant and the appropriate oligonucleotides for the third mutation, L234I. The triple mutant V106A/G190A/F227L was constructed in a series of steps using the previously generated V106A mutant and the appropriate oligonucleotides for the second mutation, G190A, to generate the double mutant V106A/G190A, and then the triple mutant was made using double mutant V106A/G190A and oligonucleotides for the third mutation, F227L. The DNA sequence of each construct was verified by DNA sequence determination. The sequences encoding the mutant RTs were then subcloned into pNLNgoMIVR-ΔEnv.LUC (between the KpnI and SalI sites) to produce the mutant HIV-1 constructs. These DNA sequences were also checked independently by DNA sequence determination.
as §3

A further test concerns HIV-1 RT mutant Y188L. Set-up: method as in PMID 23217210. Conditions: previous study; cited from earlier work.
A further test has as its system HIV-1 RT mutant M184I. The test can be described thus: single round infection assay, M184I. In kind it is cell-based. The following applies: Human immunodeficiency virus 1, M184I; ± SD, n=4. As to the method:
as §1
as §2, with “respectively.” for “respectively. The double mutants E138K/M184I and E138K/M184V were constructed using the previously generated E138K mutant and the appropriate oligonucleotides for the second mutation, M184I and M184V, respectively. The triple mutant V106A/F227L/L234I was made using the previously generated V106A/F227L double mutant and the appropriate oligonucleotides for the third mutation, L234I. The triple mutant V106A/G190A/F227L was constructed in a series of steps using the previously generated V106A mutant and the appropriate oligonucleotides for the second mutation, G190A, to generate the double mutant V106A/G190A, and then the triple mutant was made using double mutant V106A/G190A and oligonucleotides for the third mutation, F227L.”
as §3

The next test deals with HIV-1 RT mutant M184V. As to the kind of experiment: single round infection assay, M184V. The class given is cell-based. How it is done: as §1, §2, §3
Another test has as its system HIV-1 RT mutant E138K. Set-up: method as in PMID 23217210. The following applies: previous study; cited from earlier work.

For `Cc1cc(/C=C/C#N)cc(C)c1Nc1ccnc(Nc2ccc(C#N)cc2)n1` [RPV, rilpivirine], the “fold-change of IC50 of the mutant relative to WT” value with HIV-1 RT mutant V111A was less than 2. In addition, in test [1], the half-inhibitory concentration (IC50) was less than 5 nM.
Regarding `Cc1cc(/C=C/C#N)cc(C)c1Nc1nc(Nc2ccc(C#N)cc2)ncc1[N+](=O)[O-]` [compound 6], the “fold-change of IC50 of the mutant relative to WT” value in test [2] amounted to 2. The half-maximal inhibitory concentration (IC50) in the test with HIV-1 RT mutant Y188L is less than 10 nM.
Take `Cc1cc(/C=C/C#N)cc(C)c1Nc1nc(Nc2ccc(C#N)cc2)ncc1N` [compound 7]: the IC50 was less than 10 nM with HIV-1 RT mutant Y188L and less than 5 nM in test [1].
With `Cc1cc(/C=C/C#N)cc(C)c1Nc1ncc([N+](=O)[O-])c(Nc2ccc(C#N)cc2)n1` [compound 8], in test [2], the “fold-change of IC50 of the mutant relative to WT” value is recorded as less than 2.
Consider `Cc1cc(/C=C/C#N)cc(C)c1Nc1ncc(N)c(Nc2ccc(C#N)cc2)n1` [compound 9], for which the IC50 in test [2] (Human immunodeficiency virus 1, V106A/F227L/L234I (selected by DOR)) was less than 5 nM; in test [2] (V106A/F227L/L234I (selected by DOR)), 6.4 ± 1.8 nM. Also, the “fold-change of IC50 of the mutant relative to WT” value in test [2] was found to be 5.
In the case of `COc1ccc(Cn2cnc3c(Nc4ccc(C#N)cc4)nc(Nc4c(C)cc(/C=C/C#N)cc4C)nc32)cc1` [compound 12], the “fold-change of IC50 of the mutant relative to WT” value in test [2] is less than 2; in the test on HIV-1 RT mutant V111A, less than 2; in the test with HIV-1 RT mutant M184V (M184V vs WT) it was 2. Also, the IC50 with HIV-1 RT mutant V111A (Human immunodeficiency virus 1, V111A, ± SD, n=4) was 0.76 ± 0.17 nM; in the test with HIV-1 RT mutant M184I, 0.69 ± 0.2 nM; in the test on HIV-1 RT mutant M184V (Human immunodeficiency virus 1, M184V, ± SD, n=4), 1.6 ± 0.42 nM; in the test on HIV-1 RT mutant E138K it was 15 nM.

These data come from article PMC4754833, “Rilpivirine analogs potently inhibit drug-resistant HIV-1 mutants” (Retrovirology, 2016).
